Measurements published in US4068074A, “Cephalosporin derivatives having at the 3-position of the cephem ring a heterocyclic thiomethyl group with a carboxy or sulfo group and at the 7-position of the cephem ring an α-heterocylic acylaminophenyl-acetamide group” (priority 1974, dated 1978).
Values after ≈ are worked out from the molar mass of the structure shown. Like-named read-outs stand apart in the source and are kept apart here.

Key:
Proteus vulgaris 0X 19US = assay: MIC against bacteria (Table I), strain (2); type: cell-based; settings: 0X19US
From the text: (§1) Now, for illustrating the excellent pharmacological effects of the compounds of this invention, the values of MIC (γ/ml.) of the compounds against various bacteria are shown in Table 1, in which the compounds of this invention used are shown by example numbers.
(2) Proteus vulgaris 0X 19US

[1] = tested on: Pseudomonas aeruginosa ATCC 8689; assay: MIC against bacteria (Table I), strain (4); type: cell-based; settings: ATCC8689
From the text: as §1
(4) Pseudomonas aeruginosa ATCC 8689

[2] = tested on: Pseudomonas aeruginosa 99 (Gentamycin resistant); assay: MIC against bacteria (Table I), strain (5); type: cell-based
From the text: as §1
(5) Pseudomonas aeruginosa 99 (Gentamycin resistant)

[3] = tested on: Escherichia coli kauffmann 0-1; assay: MIC against bacteria (Table I), strain (7); type: cell-based; settings: Escherichia coli
From the text: as §1
(7) Escherichia coli kauffmann 0-1

[4] = tested on: Klebsiella pneumoniae ATCC 10031; assay: MIC against bacteria (Table I), strain (8); type: cell-based; settings: Klebsiella pneumoniae, ATCC10031
From the text: as §1
(8) Klebsiella pneumoniae ATCC 10031

Salmonella typhi H901 W = assay: MIC against bacteria (Table I), strain (9); type: cell-based; settings: Salmonella enterica, TYPHI
From the text: as §1
(9) Salmonella typhi H901 W

Salmonella enteritidis = assay: MIC against bacteria (Table I), strain (10); type: cell-based; settings: Salmonella enterica, ENTERITIDIS
From the text: as §1
(10) Salmonella enteritidis

[5] = tested on: Shigella flexneri 2a 1675; assay: MIC against bacteria (Table I), strain (11); type: cell-based; settings: 2A1675; (11) Shigella flexneri 2a 1675; read-out: MIC
From the text: as §1

Shigella sonnei II 37148 = assay: MIC against bacteria (Table I), strain (12); type: cell-based; settings: II37148; (12) Shigella sonnei II 37148; read-out: MIC
From the text: as §1

[6] = tested on: Bacillus subtilis ATCC 6633; assay: MIC against bacteria (Table I), strain (14); type: cell-based; settings: ATCC6633
From the text: as §1
(14) Bacillus subtilis ATCC 6633

[7] = tested on: Staphylococcus aureus 209P; assay: MIC against bacteria (Table I), strain (16); type: cell-based
From the text: as §1
(16) Staphylococcus aureus 209P

[8] = tested on: Staphylococcus Shimanishi; assay: MIC against bacteria (Table I), strain (17); type: cell-based; settings: Staphylococcus
From the text: as §1
(17) Staphylococcus Shimanishi

Staphylococcus Onuma = assay: MIC against bacteria (Table I), strain (18); type: cell-based
From the text: as §1
(18) Staphylococcus Onuma

[9] = tested on: β-lactamase isolated from Pseudomonas aeruginosa 21; assay: Resistance to β-lactamase: amount of unaltered test sample (Table 3); type: biochemical; settings: initial concentration 100γ/ml
From the text: For example, the relation between the amount (γ/ml) of an unaltered test sample at an initial concentration of the sample 100γ/ml against β-lactamase isolated from Pseudomonas aeruginosa 21 at various dilutions of the enzyme were investigated.

[10] = Residual antibacterial activity after incubation with 90% plasma (Table 4); type: in vitro ADME, male Sprague-Dowley rat; settings: 90% rat plasma; for remaining at 0.25 h / remaining at 0.5 h / remaining at 1.5 h: 90% plasma; for remaining at 0.25 h: 15 minute; for remaining at 0.5 h: 30 minute; for remaining at 1.5 h: 90 minute; for Residual activity: 0 minute
Protocol: (§2) The relation between the reaction period of time and the antibacterial activity (residual activity, %) when these compounds are incubated with the plasma and the liver homogenate of a male Sprague-Dowley rat is shown in Table 4. The residual antibacterial activity was measured by a thin-layer cup method according to Bacillus subtilis ATCC 6633.
A*Residual activity (%) when incubated with 90% plasma.

[11] = Residual antibacterial activity after incubation with 10% liver homogenate (Table 4); type: in vitro ADME, male Sprague-Dowley rat; settings: for remaining at 0.25 h / remaining at 0.5 h / remaining at 1.5 h: 10% liver homogenate
Protocol: as §2
B*Residual activity (%) when incubated with 10% liver homogenate.

[12] = type: in vitro ADME
From the text: Still another advantage of the compounds of this invention is that they are not inactivated in the internal organs of the body. For example, when the compounds of this invention and cephalotin are each homogenized with internal organs, the compounds of this invention are not decomposed while cephalotin is decomposed.

Proteus vulgaris OXK US = assay: MIC against bacteria (Table I), strain (1); type: cell-based; settings: (1) Proteus vulgaris OXK US; read-out: MIC
From the text: as §1
(1) Proteus vulgaris OXK US

[13] = tested on: Proteus mirabilis IXM OM-19; assay: MIC against bacteria (Table I), strain (3); type: cell-based; settings: IXMOM19; (3) Proteus mirabilis IXM OM-19; read-out: MIC
From the text: as §1
(3) Proteus mirabilis IXM OM-19

[14] = tested on: Psuedomonas ovalis IMA 1002; assay: MIC against bacteria (Table I), strain (6); type: cell-based; settings: (6) Psuedomonas ovalis IMA 1002; read-out: MIC
From the text: as §1
(6) Psuedomonas ovalis IMA 1002

[15] = tested on: Bacillus megatherium 10778; assay: MIC against bacteria (Table I), strain (13); type: cell-based; settings: (13) Bacillus megatherium 10778; read-out: MIC
From the text: as §1

[16] = tested on: Micrococcus flavus ATCC 10240; assay: MIC against bacteria (Table I), strain (15); type: cell-based; settings: Micrococcus flavus, ATCC10240
From the text: as §1
(15) Micrococcus flavus ATCC 10240

[17] = Solubility of salts in water (Table 2); type: physicochemical; settings: disodium salt, water, showing pH 7.4; read-out: Solubility: disodium salt dissolved in water in an amount of
From the text: An advantage of the compounds of this invention is that the salts, for example, sodium salts of these compounds are readily soluble in water at pH of living bodies, which makes them suitable for injections at high concentration. The solubility of these compounds are illustrated in Table 2 together with a control example.

Structure (SMILES)	MIC [3] [µg/mL]	MIC [4] [µg/mL]	MIC (Salmonella typhi H901 W) [µg/mL]	MIC (Salmonella enteritidis) [µg/mL]	MIC [5] [µg/mL]	MIC (Shigella sonnei II 37148) [µg/mL]	MIC [8] [µg/mL]	Amount of unaltered test sample ([9]; β-lactamase dilution ×2) [µg/mL]	Amount of unaltered test sample ([9]; β-lactamase dilution ×4) [µg/mL]	Amount of unaltered test sample ([9]; β-lactamase dilution ×8) [µg/mL]	Amount of unaltered test sample ([9]; β-lactamase dilution ×16) [µg/mL]	Amount of unaltered test sample ([9]; β-lactamase dilution ×32) [µg/mL]	Amount of unaltered test sample ([9]; β-lactamase dilution ×64) [µg/mL]	Amount of unaltered test sample ([9]; β-lactamase dilution ×128) [µg/mL]	Amount of unaltered test sample ([9]; β-lactamase dilution ×256) [µg/mL]	Amount of unaltered test sample ([9]; β-lactamase dilution ×512) [µg/mL]	Amount of unaltered test sample ([9]; β-lactamase dilution ×1024) [µg/mL]	remaining at 0.25 h [10] [%]	remaining at 0.5 h [10] [%]	remaining at 1.5 h [10] [%]	further results
CC(=O)OCC1=C(C(=O)O)N2C(=O)[C@@H](NC(=O)Cc3cccs3)[C@H]2SC1 [Cephalotin, reference compound]	3.13 (≈ 7.9 µM)	0.78 (≈ 1.97 µM)	1.56 (≈ 3.93 µM)	0.39 (≈ 0.984 µM)	6.25 (≈ 15.8 µM)	6.25 (≈ 15.8 µM)	0.39 (≈ 0.984 µM)	0	0	0	0	2.6	11.8	46.8	81.6	100	100	87	66	36	MIC (Proteus vulgaris 0X 19US; Proteus vulgaris): 12.5 µg/mL (≈ 31.5 µM); MIC ([1]; Pseudomonas aeruginosa): > 100 µg/mL; MIC ([2]; Pseudomonas aeruginosa): > 100 µg/mL; MIC ([6]; Bacillus subtilis): < 0.09 µg/mL; MIC ([7]; Staphylococcus aureus, 209P): 0.19 µg/mL (≈ 0.479 µM); MIC (Staphylococcus Onuma; Staphylococcus): 0.39 µg/mL (≈ 0.984 µM); Residual activity [10]: 100%; Residual activity ([11]; rat, 0 min): 100%; remaining at 0.25 h ([11]; rat): 17.2%; remaining at 0.5 h ([11]; rat): 12.2%; remaining at 1.5 h ([11]; rat): 12.6%; Decomposition when homogenized with internal organs [12]: decomposed
O=C(O)CSc1nnc(SCC2=C(C(=O)O)N3C(=O)[C@@H](NC(=O)[C@H](NC(=O)c4cnccc4O)c4ccccc4)[C@H]3SC2)s1 [Example 4, 7-[D-α-(4-hydroxynicotinoylamido)-α-phenylacetamido]-3-(5-carboxymethylthio-1,3,4-thiadiazol-2-yl)thiomethyl-Δ^3-cephem-4-carboxylic acid]	3.13 (≈ 4.64 µM)	3.13 (≈ 4.64 µM)	1.56 (≈ 2.31 µM)	0.39 (≈ 0.578 µM)	0.78 (≈ 1.16 µM)	3.13 (≈ 4.64 µM)	3.13 (≈ 4.64 µM)	0	29.6	61.0	100	100	100	100	100	100	100	97	93.9	103	MIC (Proteus vulgaris OXK US): < 0.09 µg/mL; MIC (Proteus vulgaris 0X 19US; (2) Proteus vulgaris 0X 19US, read-out: MIC): 0.19 µg/mL (≈ 0.282 µM); MIC [13]: 0.39 µg/mL (≈ 0.578 µM); MIC ([1]; (4) Pseudomonas aeruginosa ATCC 8689, read-out: MIC): 12.5 µg/mL (≈ 18.5 µM); MIC ([2]; (5) Pseudomonas aeruginosa 99 (Gentamycin resistant), read-out: MIC): 6.25 µg/mL (≈ 9.26 µM); MIC [14]: 6.25 µg/mL (≈ 9.26 µM); MIC [15]: 0.19 µg/mL (≈ 0.282 µM); MIC ([6]; (14) Bacillus subtilis ATCC 6633, read-out: MIC): 0.19 µg/mL (≈ 0.282 µM); MIC [16]: 3.13 µg/mL (≈ 4.64 µM); MIC ([7]; (16) Staphylococcus aureus 209P, read-out: MIC): 0.78 µg/mL (≈ 1.16 µM); MIC (Staphylococcus Onuma; (18) Staphylococcus Onuma, read-out: MIC): 6.25 µg/mL (≈ 9.26 µM); solubility [17]: > 200 mg/mL; Residual activity [10]: 100%; remaining at 0.25 h ([11]; 10% rat liver homogenate, 15 minute, read-out: Residual activity): 93.5%; remaining at 0.5 h ([11]; 10% rat liver homogenate, 30 minute, read-out: Residual activity): 91.3%; remaining at 1.5 h ([11]; 10% rat liver homogenate, 90 minute, read-out: Residual activity): 102%; Residual activity ([11]; 10% rat liver homogenate, 0 minute): 100%
